What all share (assay type): functional
Assay [1] relates to Homo sapiens. As to the kind of experiment: Upregulation of cleaved caspase-3 levels in malignant hepatic tissue of cancer patient at 5 g/day, po administered for 10 to 21 days by immunohistochemistry relative to control.
For assay [2], the system named is Homo sapiens. As to the kind of experiment: Reduction in tumor cell proliferation in colorectal cancer patient at 0.5 to 1 g/day, po administered 8 times per day for 8 days by Ki-67 staining-based microscopic method relative to control. The arrangement: scale not given: the % may be the effect or the level left.
Assay [3] is described as follows: Antitumor activity against human TC118 cells xenografted in Swiss nu/nu mouse assessed as tumor growth inhibition at 150 mg/kg, ip qd for 5 days in presence of 5-FU. The following applies: 120 h, read-out: TGI.
Another assay has as its system CT26. As to the kind of experiment: Antitumor activity against mouse CT26 cells implanted in BALB/c mouse at 1 mg/kg, po qd administered through oral gavage for 15 days in presence of cisplatin relative to control.
Assay [4] has as its system Homo sapiens. As to the kind of experiment: Reduction in aberrant crypt foci number in colorectal cancer patient at 4 g/day, po administered 30 days relative to control. Further details: scale not given: the % may be the effect or the level left.
Assay [5] concerns Homo sapiens. As to the kind of experiment: Induction of apoptosis in tumor of colorectal cancer patient at 200 mg/day, po administered for 14 days relative to control.

Structures are written as SMILES.

Data on 5 molecules can be found in ChEMBL document CHEMBL4145458, “Natural compounds and combination therapy in colorectal cancer treatment” (2018).

Regarding `Oc1ccc(/C=C/c2cc(O)cc(O)c2)cc1` [RESVERATROL], the Activity with Homo sapiens [1] turned out to be 39%; in the assay with Homo sapiens [2], 5%.
For `CC(C)=CCC/C(C)=C/CO` [GERANIOL], the inhibition in vivo at 150 mg/kg in assay [3] is at most 83%.
Consider `O=C(/C=C/c1ccc(O)cc1)c1ccc(O)cc1O` [ISOLIQUIRITIGENIN], for which the Activity with CT26 is 79%.
With `COc1cc(/C=C/C(=O)CC(=O)/C=C/c2ccc(O)c(OC)c2)ccc1O` [CURCUMIN], the Activity in the assay with Homo sapiens [4] was 40%.
In the assay on Homo sapiens [5], `C[C@H]1[C@H](OC(=O)CCC(=O)O)O[C@@H]2O[C@@]3(C)CC[C@H]4[C@H](C)CC[C@@H]1[C@@]24OO3` [ARTESUNATE] yielded an Activity of 13%.
